Data published in EP0987268B1, “Pharmaceutical agents containing epothilone A-N-oxide and/or epothilone B-N-oxide” (Gesellschaft für Biotechnologische Forschung mbH (GBF), priority 1998, dated 2000).

Legend:
Type in all cases: cell-based
[1] = test system: human cervix carcinoma KB 3.1 (DSM ACC 158); experiment: Cytotoxic activity, KB 3.1 cells; conditions: KB 3-1, cell line human cervix carcinoma KB 3.1 (DSM ACC 158)
[2] = test system: mouse fibroblast L929 (ATCC CCL1); experiment: Cytotoxic activity, L929 cells; conditions: cell line mouse fibroblast L929 (ATCC CCL1)
[3] = test system: human lung carcinoma A-549 (DSM ACC 107); experiment: Cytotoxic activity, A-549 cells; conditions: A549, cell line human lung carcinoma A-549 (DSM ACC 107)

C/C(=C\c1csc(C)[n+]1[O-])[C@@H]1C[C@@H]2O[C@]2(C)CCC[C@H](C)[C@H](O)[C@@H](C)C(=O)C(C)(C)[C@@H](O)CC(=O)O1 [epothilone B-N-oxide]
IC50 [1]: 2 nM
IC50 [2]: 4 nM
IC50 [3]: 1.5 nM
